# Values quoted from earlier work as cited in patent publication US20090004049A1, “Method of irradiation using process of adding vitamin C” (priority 2007, published 2009).
# Tested on: patients with cancer
# Settings: 10 g of vitamin C administered to patients with cancer
smiles,measurement,value
O=C1O[C@H]([C@@H](O)CO)C(O)=C1O [vitamin C],increase of survival rate of patients compared with control,4 times
